From patent US20100197564A1, “DIARYL MORPHOLINES AS CB1 MODULATORS” (Schering Corporation, priority 2007, published 2010)

target: T1, cannabinoid CB1 (Homo sapiens, UniProt P21554); assay: Competition binding assay for cannabinoid CB1 affinity (3H-CP55,940 displacement); conditions: membranes from cells expressing the receptor, 0.5 nM 3H-CP55,940; Ki by Cheng-Prusoff; read-out: Ki values as measured in the above assay
T1 construct: purchased
Description: Non-specific binding was defined in the presence of 10 μM CP55,940. For saturation studies, concentrations of ^3H—CP55,940 ranging from 0.1-5 nM were incubated with membranes in the presence and absence of 10 μM CP55,940. Assays were terminated after incubation for 1½ hours by rapid filtration onto 0.3% polyethylenamine treated GF/C filterplates using a BRANDEL cell harvester. The plates were dried and MICROSCINT scintillation cocktail was added, after which the bound radioactivity was quantified using a TOPCOUNT scintillation counter.
The dissociation constant (Kd) of ^3H—CP55,940 at the CB1 and CB2 receptor were determined by plotting specific binding at each concentration of radioligand, and analysis by non-linear regression. For competition studies, the concentration of each drug that inhibited 50 percent of ^3H—CP55,940 binding (IC50) was determined by non-linear regression analysis of the radioligand displacement curves. Affinity constants (K) were calculated using the equation derived by Cheng and Prusoff (1973), defined as: IC50/1+[conc. ligand/Kd].

T1 sequence (P21554 whole entry): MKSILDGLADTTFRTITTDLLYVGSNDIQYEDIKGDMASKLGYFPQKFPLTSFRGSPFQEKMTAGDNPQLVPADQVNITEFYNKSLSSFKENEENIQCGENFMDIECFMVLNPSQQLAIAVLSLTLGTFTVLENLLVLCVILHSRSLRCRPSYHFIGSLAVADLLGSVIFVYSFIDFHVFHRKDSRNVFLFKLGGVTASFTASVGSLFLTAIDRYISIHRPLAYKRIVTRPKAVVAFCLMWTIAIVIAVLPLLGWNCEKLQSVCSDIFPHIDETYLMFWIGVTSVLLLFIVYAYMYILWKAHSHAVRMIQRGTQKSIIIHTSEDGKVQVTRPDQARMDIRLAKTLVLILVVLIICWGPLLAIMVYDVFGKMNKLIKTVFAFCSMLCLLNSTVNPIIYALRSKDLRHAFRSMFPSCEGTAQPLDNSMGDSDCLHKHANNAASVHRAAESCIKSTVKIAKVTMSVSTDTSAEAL

Row | SMILES | Ki [µM]
1 | Fc1ccc(CC2CN(c3ccc(Cl)cc3)C(c3ccc(Cl)cc3Cl)CO2)cc1F (stereo not shown) [Example 1] | ≤ 0.1
2 | CC(C)(C)OC(=O)CC1OCC(c2ccc(Cl)cc2Cl)N(c2ccc(Cl)cc2)C1=O (stereo not shown) [Example 2] | ≤ 0.8
3 | NCCC1CN(c2ccc(Cl)cc2)C(c2ccc(Cl)cc2Cl)CO1 (stereo not shown) [Example 5] | ≤ 0.8
4 | O=S(=O)(NCCC1CN(c2ccc(Cl)cc2)C(c2ccc(Cl)cc2Cl)CO1)c1cccnc1 (stereo not shown) [Example 6] | ≤ 0.025
